Read-outs that look alike come from different tables or passages of the source.

Broadly, the inhibition is the drop in the measured response relative to a control, in per cent.

Experiment [1] concerns the target DNA-PK(h) (Homo sapiens, UniProt P78527). The experiment can be described thus: Evaluation of inhibitory activity against DNA-PK (HTRF kinase assay, GST-cMyc-p53 substrate). The note with it: for inhibition at 0.01 µM: compound concentration 0.01 μM, read-out: EXP_VALUE(% Inhibition) DNA-PK(h) 0.01 μM; for inhibition at 0.1 µM: read-out: EXP_VALUE(% Inhibition) DNA-PK(h) 0.1 μM. It counts as biochemical. The essentials: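 Human DNA-PK with 50 μM GST-cMyc-p53 substrate; reaction started with Mg/ATP, run 30 min at room temperature, stopped with EDTA. Phospho-Ser15 p53 detected by HTRF (Eu anti-phospho-Ser15, d2 anti-GST), signal = 10000×(Em 665/Em 620).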
(Time-resolved FRET reads energy transfer from a long-lived donor to a nearby acceptor.)

Experiment [2] deals with PI3K-δ (PI3K(p1108/p857) (h)) (Homo sapiens, UniProt O00329). The experiment can be described thus: Evaluation of inhibitory activity against PI3K-δ (HTRF kinase assay). The note with it: for inhibition at 0.01 µM: compound concentration 0.01 μM, read-out: EXP_VALUE(% Inhibition) PI3K-δ 0.01 μM; for inhibition at 0.1 µM: read-out: EXP_VALUE(% Inhibition) PI3K-δ 0.1 μM. The class given is biochemical. In a few lines: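 HTRF read-out (665/620 nm ratio ×10000) used Eu-labelled anti-GST, GST-tagged GRP1 PH domain and streptavidin-allophycocyanin after EDTA/PIP3 stop.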
PI3K-δ (PI3K(p1108/p857) (h)), sequence (O00329 whole entry, the tested form may be a part): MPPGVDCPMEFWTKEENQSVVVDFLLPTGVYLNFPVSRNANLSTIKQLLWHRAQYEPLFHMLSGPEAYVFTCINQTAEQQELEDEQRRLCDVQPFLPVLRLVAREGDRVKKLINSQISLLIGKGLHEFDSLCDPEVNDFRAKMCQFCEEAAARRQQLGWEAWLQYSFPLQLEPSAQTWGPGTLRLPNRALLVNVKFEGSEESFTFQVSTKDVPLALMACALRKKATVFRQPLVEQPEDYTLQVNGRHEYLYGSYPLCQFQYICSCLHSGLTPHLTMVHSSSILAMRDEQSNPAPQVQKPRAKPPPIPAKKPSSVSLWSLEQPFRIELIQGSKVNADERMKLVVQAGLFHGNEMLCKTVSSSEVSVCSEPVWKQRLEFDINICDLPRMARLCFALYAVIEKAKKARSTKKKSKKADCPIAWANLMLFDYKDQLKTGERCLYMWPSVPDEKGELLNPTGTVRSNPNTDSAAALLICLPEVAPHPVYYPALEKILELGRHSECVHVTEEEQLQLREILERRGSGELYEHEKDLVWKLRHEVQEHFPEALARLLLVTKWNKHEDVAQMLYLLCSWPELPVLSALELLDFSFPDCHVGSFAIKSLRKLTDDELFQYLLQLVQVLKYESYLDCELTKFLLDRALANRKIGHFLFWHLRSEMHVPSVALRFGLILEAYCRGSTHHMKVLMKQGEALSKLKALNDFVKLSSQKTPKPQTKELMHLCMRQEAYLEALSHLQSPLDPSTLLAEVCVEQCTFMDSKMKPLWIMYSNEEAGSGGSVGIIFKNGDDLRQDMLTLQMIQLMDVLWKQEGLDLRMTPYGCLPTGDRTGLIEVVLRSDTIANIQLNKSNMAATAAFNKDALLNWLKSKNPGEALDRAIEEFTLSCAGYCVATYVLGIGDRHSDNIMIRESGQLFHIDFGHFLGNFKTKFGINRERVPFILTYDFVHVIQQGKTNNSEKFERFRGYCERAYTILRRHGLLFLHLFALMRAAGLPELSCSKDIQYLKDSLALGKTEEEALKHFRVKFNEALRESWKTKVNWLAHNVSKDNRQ
PI3K-δ (PI3K(p1108/p857) (h)), sequence (P27986 whole entry partner, the tested form may be a part): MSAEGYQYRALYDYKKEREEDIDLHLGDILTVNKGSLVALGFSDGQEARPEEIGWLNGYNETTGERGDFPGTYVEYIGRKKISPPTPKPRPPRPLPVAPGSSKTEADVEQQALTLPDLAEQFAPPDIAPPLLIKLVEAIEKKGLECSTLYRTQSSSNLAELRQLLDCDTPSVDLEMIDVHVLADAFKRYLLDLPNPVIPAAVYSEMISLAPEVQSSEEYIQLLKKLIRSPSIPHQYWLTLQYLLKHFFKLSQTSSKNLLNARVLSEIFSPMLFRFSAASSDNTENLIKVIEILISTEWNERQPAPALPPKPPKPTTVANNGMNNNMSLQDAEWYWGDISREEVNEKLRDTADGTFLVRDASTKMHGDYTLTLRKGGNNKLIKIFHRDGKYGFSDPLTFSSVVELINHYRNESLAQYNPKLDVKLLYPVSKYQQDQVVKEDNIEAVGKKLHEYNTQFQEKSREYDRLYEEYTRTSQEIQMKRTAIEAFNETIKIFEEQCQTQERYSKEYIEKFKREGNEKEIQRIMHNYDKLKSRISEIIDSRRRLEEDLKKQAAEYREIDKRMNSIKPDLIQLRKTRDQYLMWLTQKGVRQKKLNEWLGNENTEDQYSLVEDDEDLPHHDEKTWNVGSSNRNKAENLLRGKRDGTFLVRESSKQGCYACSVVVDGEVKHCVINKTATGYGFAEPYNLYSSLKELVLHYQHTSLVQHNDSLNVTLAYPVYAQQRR

For the compound `C[C@H](Nc1ncnc2[nH]ccc(=O)c12)c1c(Cl)c2cccc(N3CCN(C4CCN(C)CC4)CC3)c2c(=O)n1-c1ccccc1` [Example 11, (S)-4-((1-(4-chloro-8-(4-(1-methylpiperidin-4-yl)piperazin-1-yl)-1-oxo-2-phenyl-1,2-dihydroisoquinolin-3-yl)ethyl)amino)pyrido[2,3-d]pyrimidin-5(8H)-one], the inhibition at 0.01 µM in experiment [1] was 18%; in experiment [2], 21%. Besides, the results for the inhibition at 0.1 µM in experiment [1] (compound concentration 0.1 μM) and in experiment [2] (compound concentration 0.1 μM) were 53% and 61%, respectively.

In the case of `COc1ccc(Nc2cccc3c(Cl)c([C@H](C)Nc4ncnc5[nH]ccc(=O)c45)n(-c4ccccc4)c(=O)c23)cc1` [Example 345, (S)-4-((1-(4-chloro-8-((4-methoxyphenyl)amino)-1-oxo-2-phenyl-1,2-dihydroisoquinolin-3-yl)ethyl)amino)pyrido[2,3-d]pyrimidin-5(8H)-one], the inhibition at 0.01 µM in experiment [1] turned out to be 0%; in experiment [2], 10%.

For `C[C@H](Nc1ncnc2[nH]ccc(=O)c12)c1c(Cl)c2cccc(C#Cc3ccccc3)c2c(=O)n1-c1ccccc1` [Example 305, (S)-4-((1-(4-chloro-1-oxo-2-phenyl-8-(phenylethynyl)-1,2-dihydroisoquinolin-3-yl)ethyl)amino)pyrido[2,3-d]pyrimidin-5(8H)-one], the inhibition at 0.01 µM was 20% in experiment [1] and 83% in experiment [2]. Also, the inhibition at 0.1 µM in experiment [1] (compound concentration 0.1 μM) turned out to be 62%; in experiment [2] (compound concentration 0.1 μM), 99%.

Consider `C[C@H](Nc1ncnc2[nH]ccc(=O)c12)c1c(Cl)c2cccc(-c3cnn(CCN(C)C)c3)c2c(=O)n1-c1ccccc1` [Example 83, (S)-4-((1-(4-chloro-8-(1-(2-(dimethylamino)ethyl)-1H-pyrazol-4-yl)-1-oxo-2-phenyl-1,2-dihydroisoquinolin-3-yl)ethyl)amino)pyrido[2,3-d]pyrimidin-5(8H)-one], for which the results for the inhibition at 0.01 µM in experiment [1] and in experiment [2] were 66% and 56%, respectively. Moreover, the inhibition at 0.1 µM in experiment [1] (compound concentration 0.1 μM) is 94%; in experiment [2] (compound concentration 0.1 μM), 89%.

In the case of `C[C@H](Nc1ncnc2[nH]ccc(=O)c12)c1c(Cl)c2cccc(-c3ncc[nH]3)c2c(=O)n1-c1ccccc1` [Example 287, (S)-4-((1-(4-chloro-8-(1H-imidazol-2-yl)-1-oxo-2-phenyl-1,2-dihydroisoquinolin-3-yl)ethyl)amino)pyrido[2,3-d]pyrimidin-5(8H)-one], the results for the inhibition at 0.01 µM in experiment [1] and in experiment [2] were 28% and 38%, respectively.

`C[C@H](Nc1ncnc2[nH]ccc(=O)c12)c1c(Cl)c2cccc(C(=O)O)c2c(=O)n1-c1ccccc1` [Example 290, (S)-4-chloro-1-oxo-3-(1-((5-oxo-5,8-dihydropyrido[2,3-d]pyrimidin-4-yl)amino)ethyl)-2-phenyl-1,2-dihydroisoquinoline-8-carboxylic acid]: the inhibition at 0.01 µM in experiment [1] came out at 39%; in experiment [2] it was 80%. The inhibition at 0.1 µM was determined as 76% in experiment [1] (compound concentration 0.1 μM) and 102% in experiment [2] (compound concentration 0.1 μM).

Consider `C[C@H](Nc1ncnc2[nH]ccc(=O)c12)c1c(Cl)c2cccc(OCc3ccccn3)c2c(=O)n1-c1ccccc1` [Example 430, (S)-4-((1-(4-chloro-1-oxo-2-phenyl-8-(pyridin-2-ylmethoxy)-1,2-dihydroisoquinolin-3-yl)ethyl)amino)pyrido[2,3-d]pyrimidin-5(8H)-one], for which the inhibition at 0.1 µM was found to be 68% in experiment [1] (compound at 0.1 μM) and 44% in experiment [2] (compound at 0.1 μM).

Consider `CCC[S@@+]([O-])c1cccc2c(Cl)c([C@H](C)Nc3ncnc4[nH]ccc(=O)c34)n(-c3ccccc3)c(=O)c12` [Example 397], for which the results for the inhibition at 0.1 µM in experiment [1] (compound at 0.1 μM) and in experiment [2] (compound at 0.1 μM) were 34% and 94%, respectively.

Take `C[C@H](Nc1ncnc2[nH]ccc(=O)c12)c1c(Cl)c2cccc(-c3ccc([Si](C)(C)C)cc3)c2c(=O)n1-c1ccccc1` [Example 178, (S)-4-((1-(4-chloro-1-oxo-2-phenyl-8-(4-(trimethylsilyl)phenyl)-1,2-dihydroisoquinolin-3-yl)ethyl)amino)pyrido[2,3-d]pyrimidin-5(8H)-one]: the inhibition at 0.01 µM in experiment [1] was -4%; in experiment [2] it was 9%.

As to `C[C@H](Nc1ncnc2[nH]ccc(=O)c12)c1c(Cl)c2cccc(-c3cnc(C(C)(C)O)nc3)c2c(=O)n1-c1ccccc1` [Example 26, (S)-4-((1-(4-chloro-8-(2-(2-hydroxypropan-2-yl)pyrimidin-5-yl)-1-oxo-2-phenyl-1,2-dihydroisoquinolin-3-yl)ethyl)amino)pyrido[2,3-d]pyrimidin-5(8H)-one], the inhibition at 0.01 µM in experiment [1] came out at 66%; in experiment [2] it was 92%.

`CCC[S@+]([O-])c1cccc2c(Cl)c([C@H](C)Nc3ncnc4[nH]ccc(=O)c34)n(-c3ccccc3)c(=O)c12` [Example 396, 4-(((S)-1-(4-chloro-1-oxo-2-phenyl-8-((S)-propylsulfinyl)-1,2-dihydroisoquinolin-3-yl)ethyl)amino)pyrido[2,3-d]pyrimidin-5(8H)-one]: the inhibition at 0.1 µM in experiment [1] (compound at 0.1 μM) was determined as 46%; in experiment [2] (compound at 0.1 μM), 29%.

As to `C[C@H](Nc1ncnc2[nH]ccc(=O)c12)c1c(Cl)c2cccc(-c3cnc(C(F)(F)F)cn3)c2c(=O)n1-c1ccccc1` [Example 51, (S)-4-((1-(4-chloro-1-oxo-2-phenyl-8-(5-(trifluoromethyl)pyrazin-2-yl)-1,2-dihydroisoquinolin-3-yl)ethyl)amino)pyrido[2,3-d]pyrimidin-5(8H)-one], the figures for the inhibition at 0.01 µM in experiment [1] and in experiment [2] were -15% and 6%, respectively.

Regarding `C[C@H](Nc1ncnc2[nH]ccc(=O)c12)c1c(Cl)c2cccc(N3CCc4ccccc43)c2c(=O)n1-c1ccccc1` [Example 341, (S)-4-((1-(4-chloro-8-(indolin-1-yl)-1-oxo-2-phenyl-1,2-dihydroisoquinolin-3-yl)ethyl)amino)pyrido[2,3-d]pyrimidin-5(8H)-one], the inhibition at 0.01 µM came to 13% in experiment [1] and 62% in experiment [2]. Moreover, the inhibition at 0.1 µM came out at 56% in experiment [1] (compound concentration 0.1 μM) and 91% in experiment [2] (compound concentration 0.1 μM).

For `C[C@H](Nc1ncnc2[nH]ccc(=O)c12)c1c(Cl)c2cccc(Sc3ccc(Cl)cc3)c2c(=O)n1-c1ccccc1` [Example 371, (S)-4-((1-(4-chloro-8-((4-chlorophenyl)thio)-1-oxo-2-phenyl-1,2-dihydroisoquinolin-3-yl)ethyl)amino)pyrido[2,3-d]pyrimidin-5(8H)-one], the inhibition at 0.01 µM in experiment [1] worked out at 0%; in experiment [2], 2%. Besides, the inhibition at 0.1 µM came out at 4% in experiment [1] (compound concentration 0.1 μM) and 10% in experiment [2] (compound concentration 0.1 μM).

For the compound `C[C@H](Nc1ncnc2[nH]ccc(=O)c12)c1c(Cl)c2cccc(-c3ccc(C#N)cn3)c2c(=O)n1-c1ccccc1` [Example 31, (S)-6-(4-chloro-1-oxo-3-(1-((5-oxo-5,8-dihydropyrido[2,3-d]pyrimidin-4-yl)amino)ethyl)-2-phenyl-1,2-dihydroisoquinolin-8-yl) nicotinonitrile], the results for the inhibition at 0.01 µM in experiment [1] and in experiment [2] were 2% and 0%, respectively.

Take `CC(C)C1CCN(c2cccc3c(Cl)c([C@H](C)Nc4ncnc5[nH]ccc(=O)c45)n(-c4ccccc4)c(=O)c23)CC1` [Example 76, (S)-4-((1-(4-chloro-8-(4-isopropylpiperidin-1-yl)-1-oxo-2-phenyl-1,2-dihydroisoquinolin-3-yl)ethyl)amino)pyrido[2,3-d]pyrimidin-5(8H)-one]: the results for the inhibition at 0.01 µM in experiment [1] and in experiment [2] were 1% and 14%, respectively. The inhibition at 0.1 µM in experiment [1] (compound concentration 0.1 μM) came out at 20%; in experiment [2] (compound concentration 0.1 μM), 43%.

For `CC(C)[S@@](=N)(=O)c1cccc2c(Cl)c([C@H](C)Nc3ncnc4[nH]ccc(=O)c34)n(-c3ccccc3)c(=O)c12` [Example 410, 4-(((S)-1-(4-chloro-1-oxo-2-phenyl-8-((R)-propan-2-ylsulfonimidoyl)-1,2-dihydroisoquinolin-3-yl)ethyl)amino)pyrido[2,3-d]pyrimidin-5(8H)-one], the inhibition at 0.1 µM amounted to 23% in experiment [1] (compound at 0.1 μM) and 14% in experiment [2] (compound at 0.1 μM).

For the compound `CC(=O)Nc1cccc2c(Cl)c([C@H](C)Nc3ncnc4[nH]ccc(=O)c34)n(-c3ccccc3)c(=O)c12` [Example 296, (S)—N-(4-chloro-1-oxo-3-(1-((5-oxo-5,8-dihydropyrido[2,3-d]pyrimidin-4-yl)amino)ethyl)-2-phenyl-1,2-dihydroisoquinolin-8-yl) acetamide], the inhibition at 0.01 µM in experiment [1] was determined as 30%; in experiment [2], 46%.

With `COc1ncc(-c2cccc3c(Cl)c([C@H](C)Nc4ncnc5[nH]ccc(=O)c45)n(-c4ccccc4)c(=O)c23)cc1F` [Example 186, (S)-4-((1-(4-chloro-8-(5-fluoro-6-methoxypyridin-3-yl)-1-oxo-2-phenyl-1,2-dihydroisoquinolin-3-yl)ethyl)amino)pyrido[2,3-d]pyrimidin-5(8H)-one], the inhibition at 0.01 µM in experiment [1] turned out to be 49%; in experiment [2], 94%.

For `C[C@H](Nc1ncnc2[nH]ccc(=O)c12)c1c(Cl)c2cccc(-c3cnc(F)nc3)c2c(=O)n1-c1ccccc1` [Example 382, (S)-4-((1-(4-chloro-8-(2-fluoropyrimidin-5-yl)-1-oxo-2-phenyl-1,2-dihydroisoquinolin-3-yl)ethyl)amino)pyrido[2,3-d]pyrimidin-5(8H)-one], the inhibition at 0.1 µM in experiment [1] (compound at 0.1 μM) came to 5%; in experiment [2] (compound at 0.1 μM) it was 16%.
